This is an account of results in patent publication US20260218267A1, “METHODS AND COMPOSITIONS FOR PRODUCTION AND PURIFICATION OF PEPTIDES” (priority 2023, published 2026).

Data set [1] deals with grey mold (Botrytis cinerea). As to the kind of experiment: Disease control assay, tomato plants infected with grey mold. It is filed as in vivo. To be noted: peptide sprayed 24 h post infection at 0.1 g/l or 0.3 g/l, FIG. 17. Here is the method: The peptides were sprayed 24 h post infection at concentration of 0.1 g/l or 0.3 g/l.
Peptide production was performed using the chaotropic agent-free protocol described in Example 8.
A synthetic peptide (MP18913), which mimics the concatemeric sequence with an N-terminus proline (P) and C-terminus aspartate (D), was chemically synthetized and used as a control treatment.
Peptide activity was assessed by a disease control assay using tomato plants infected with grey mold (Botrytis cinerea). Peptides were sprayed 24 h post infection at concentration of 0.1 g/l or 0.3 g/l. Disease control percentage was determined based on convex hull recovery, with a total of 7 plants examined (n=7) upon infection with Botrytis spores at 250 spores/ml.

For data set [2] the following is noted: general statement on onconase; cited from earlier work.

On to MP18913 (PKKEEMSYMKRD), for which the “Control of tomato grey mold infection, comparison in words” value in data set [1] is on record as “as effective, or slightly more effective, than the chemically synthetized version”.

B1: Onconase: RNAse first identified in Rana pipiens, about 104 amino acids, used as insoluble carrier polypeptide (protein, UniProt P22069 1-104, looked up)
Protein P-30: QDWLTFQKKHITNTRDVDCDNIMSTNLFHCKDKNTFIYSRPEPVKAICKGIIASKNVLTTSEFYLSDCNVTSRPCKYKLKKSTNKFCVTCENQAPVHFVGVGSC
B1: the pI result in data set [2] was “higher than 9.5”.
